Source: patent US20230265151A1, “GIP/GLP1 CO-AGONIST COMPOUNDS” (priority 2020, published 2023)
Where two headings read alike, the source gives them in different places.

What was measured:
[1] = molecular target: T1, hGIPR (Homo sapiens, UniProt P48546); experiment: Functional cAMP formation (HTRF) in HEK-293 clonal cells expressing hGIPR, 0.1% bovine casein, without or with 1.0% human serum albumin; type: cell-based; conditions: for Emax: read-out: hGIPR Emax, % ± SEM; for EC50: read-out: hGIPR EC50, nM (SEM, n)
T1 construct: expressed in transfected cells
T1 sequence (P48546 22-466): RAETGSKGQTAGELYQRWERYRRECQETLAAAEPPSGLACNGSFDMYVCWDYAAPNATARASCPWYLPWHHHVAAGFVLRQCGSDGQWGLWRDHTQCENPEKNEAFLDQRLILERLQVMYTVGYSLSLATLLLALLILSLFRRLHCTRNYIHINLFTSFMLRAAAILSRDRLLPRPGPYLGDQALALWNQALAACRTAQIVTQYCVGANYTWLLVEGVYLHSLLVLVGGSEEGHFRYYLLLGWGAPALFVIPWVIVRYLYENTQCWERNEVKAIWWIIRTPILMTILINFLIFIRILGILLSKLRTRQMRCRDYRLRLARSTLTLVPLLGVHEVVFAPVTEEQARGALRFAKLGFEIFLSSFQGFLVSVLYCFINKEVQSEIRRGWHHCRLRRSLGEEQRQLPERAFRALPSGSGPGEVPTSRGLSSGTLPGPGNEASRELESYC
Outline: (§1)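 Readings of the HTRF 665/620 nm ratio, which falls as cAMP rises, were converted to nM cAMP using a standard curve after 30 min peptide exposure at 37° C.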

[2] = molecular target: T2, human Gcg receptor (hGcgR) (Homo sapiens, UniProt P47871); experiment: [125I]-Glucagon binding, SPA with membranes of HEK293 cells expressing hGcgR; conditions: human GcgR; geometric mean (SEM, n); read-out: Binding Affinity Ki, nM (SEM, n) hGCGR
T2 construct: expressed in transfected cells; crude membranes

[3] = molecular target: T3, hGCGR (Homo sapiens, UniProt P47871); experiment: Functional cAMP formation (HTRF) in HEK-293 clonal cells expressing hGCGR, 0.1% bovine casein, without or with 1.0% human serum albumin; type: cell-based; conditions: read-out: hGCGR EC50, nM (SEM, n)
T3 construct: expressed in transfected cells
Outline: as §1

[4] = molecular target: hGLP-1R (Homo sapiens, UniProt P43220); experiment: Functional cAMP formation (HTRF) in HEK-293 clonal cells expressing hGLP-1R, 0.1% bovine casein, without or with 1.0% human serum albumin; type: cell-based; set-up: expressed in transfected cells; conditions: 37° C.; for Emax: read-out: hGLP-1R Emax, % ± SEM; for EC50: read-out: hGLP-1R EC50, nM (SEM, n)
Outline: as §1

[5] = cAMP, 37° C., 0.1% bovine casein (no human serum albumin), geometric mean
[6] = cAMP, 37° C., 0.1% bovine casein and 1.0% human serum albumin, geometric mean (SEM, n)
[7] = 0.1% bovine casein and 1.0% human serum albumin, 37° C., geometric mean
[8] = HEK293, 0.1% bovine casein and 1.0% human serum albumin, 37° C., percent of maximal response to GIP(1-42)NH2
[9] = HEK293, percent of maximal response to GIP(1-42)NH2, 37° C., 0.1% bovine casein, arithmetic mean
[10] = cAMP, incubated at 37° C., 0.1% bovine casein (no human serum albumin), geometric mean
[11] = 0.1% bovine casein and 1.0% human serum albumin, geometric mean
[12] = HEK293, percent of maximal response to GLP-1(7-36)NH2, 0.1% bovine casein, arithmetic mean

Chain of hGLP-1R (P43220 24-463): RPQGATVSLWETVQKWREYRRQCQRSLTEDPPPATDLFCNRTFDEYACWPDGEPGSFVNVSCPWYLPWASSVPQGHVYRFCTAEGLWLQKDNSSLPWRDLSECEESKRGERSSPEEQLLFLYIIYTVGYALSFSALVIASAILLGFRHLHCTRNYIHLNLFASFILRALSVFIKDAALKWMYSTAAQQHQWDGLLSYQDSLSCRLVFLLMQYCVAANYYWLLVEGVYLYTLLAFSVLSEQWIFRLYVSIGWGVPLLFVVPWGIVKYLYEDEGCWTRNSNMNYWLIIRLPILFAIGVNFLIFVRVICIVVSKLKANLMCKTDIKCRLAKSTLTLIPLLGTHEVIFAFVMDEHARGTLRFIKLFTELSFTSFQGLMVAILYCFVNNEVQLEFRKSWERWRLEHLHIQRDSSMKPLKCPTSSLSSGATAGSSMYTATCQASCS
T2 sequence (P47871 26-477): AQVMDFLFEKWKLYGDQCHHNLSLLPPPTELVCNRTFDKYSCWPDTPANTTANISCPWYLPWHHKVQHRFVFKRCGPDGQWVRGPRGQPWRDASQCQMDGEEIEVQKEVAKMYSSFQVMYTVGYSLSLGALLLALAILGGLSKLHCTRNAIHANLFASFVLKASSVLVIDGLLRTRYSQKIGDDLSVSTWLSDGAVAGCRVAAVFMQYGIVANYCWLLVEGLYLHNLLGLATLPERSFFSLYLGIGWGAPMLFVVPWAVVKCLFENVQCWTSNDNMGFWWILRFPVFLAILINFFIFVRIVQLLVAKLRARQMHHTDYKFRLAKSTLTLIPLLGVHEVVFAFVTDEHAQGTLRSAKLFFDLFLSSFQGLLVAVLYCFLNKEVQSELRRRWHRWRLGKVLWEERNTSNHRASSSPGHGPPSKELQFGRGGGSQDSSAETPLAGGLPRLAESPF
T3 sequence (P47871 26-477): as above

Compound | Emax ([1]; HEK293, cAMP, 37° C., 0.1% bovine casein and 1.0% human serum albumin, percent of maximal response to GIP(1-42)NH2) [%] | EC50 [1, 5] [nM] | EC50 [1, 6] [nM] | Ki [2] [nM] | EC50 [3, 5] [nM] | EC50 [3, 6] [nM] | Emax ([4]; HEK293, cAMP, 0.1% bovine casein, percent of maximal response to GLP-1(7-36)NH2, arithmetic mean) [%] | EC50 ([4]; cAMP, 0.1% bovine casein (no human serum albumin), geometric mean) [nM] | EC50 ([4]; cAMP, 0.1% bovine casein and 1.0% human serum albumin, geometric mean (SEM, n)) [nM] | EC50 [1, 7] [nM] | Emax [1, 8] [%] | Emax [1, 9] [%] | EC50 [3, 7] [nM] | EC50 [3, 10] [nM] | EC50 [4, 11] [nM] | Emax ([4]; HEK293, 0.1% bovine casein and 1.0% human serum albumin, percent of maximal response to GLP-1(7-36)NH2) [%] | Emax [4, 12] [%] | EC50 [1, 10] [nM]
CC[C@H](C)[C@H](NC(=O)[C@H](CC(C)C)NC(=O)[C@](C)(Cc1ccc(O)cc1)NC(=O)[C@@H](CCC(=O)O)NC(=O)[C@@H](NC(=O)[C@H](Cc1ccccc1)NC(=O)[C@H](CCC(=O)O)NC(=O)C(C)(C)NC(=O)[C@H](CCC(N)=O)NC(=O)[C@H](C)NC(=O)[C@H](CCCCNC(=O)COCCOCCNC(=O)CC[C@H](NC(=O)CCCCCCCCCCCCC(=O)O)C(=O)O)NC(=O)[C@H](CCCN)NC(=O)[C@H](CC(=O)O)NC(=O)[C@H](CC(C)C)NC(=O)[C@](C)(CC(C)C)NC(=O)[C@@H](NC(=O)C(C)(C)NC(=O)[C@H](Cc1ccncc1)NC(=O)[C@H](CC(=O)O)NC(=O)[C@H](CO)NC(=O)[C@@H](NC(=O)[C@](C)(Cc1ccccc1F)NC(=O)[C@@H](NC(=O)CNC(=O)[C@H](CCC(=O)O)NC(=O)C(C)(C)NC(=O)[C@@H](N)Cc1ccc(O)cc1)[C@@H](C)O)[C@@H](C)O)[C@@H](C)CC)[C@@H](C)CC)C(=O)N[C@@H](CCC(=O)O)C(=O)NCC(=O)NCC(=O)N1CCC[C@H]1C(=O)N[C@@H](CO)C(=O)N[C@@H](CO)C(=O)NCC(=O)N[C@@H](C)C(=O)N1CCC[C@H]1C(=O)N1CCC[C@H]1C(=O)N1CCC[C@H]1C(=O)N[C@@H](CO)C(=O)N[C@@H](CCCCNC(=O)COCCOCCNC(=O)CC[C@H](NC(=O)CCCCCCCCCCCCC(=O)O)C(=O)O)C(N)=O [Example 338] | 83.9 | 0.0157 | 1.24 | > 957 | > 10100 | > 10100 | 109 | 0.468 | 36.6 | – | – | – | – | – | – | – | – | –
CC[C@H](C)[C@H](NC(=O)[C@H](CC(C)C)NC(=O)[C@](C)(Cc1ccc(O)cc1)NC(=O)[C@@H](CCC(=O)O)NC(=O)[C@@H](NC(=O)[C@H](Cc1ccccc1)NC(=O)[C@H](CCC(=O)O)NC(=O)C(C)(C)NC(=O)[C@H](CCC(N)=O)NC(=O)[C@H](C)NC(=O)[C@H](CCCCNC(=O)COCCOCCNC(=O)COCCOCCNC(=O)CC[C@H](NC(=O)CCCCCCCCCCCCC(=O)O)C(=O)O)NC(=O)[C@H](CCCN)NC(=O)[C@H](CC(=O)O)NC(=O)[C@H](CC(C)C)NC(=O)[C@](C)(CC(C)C)NC(=O)[C@@H](NC(=O)[C@H](CO)NC(=O)[C@H](Cc1ccncc1)NC(=O)[C@H](CC(=O)O)NC(=O)[C@H](CO)NC(=O)[C@@H](NC(=O)[C@](C)(Cc1ccccc1)NC(=O)[C@@H](NC(=O)CNC(=O)[C@H](CCC(=O)O)NC(=O)C(C)(C)NC(=O)[C@@H](N)Cc1ccc(O)cc1)[C@@H](C)O)[C@@H](C)O)[C@@H](C)CC)[C@@H](C)CC)C(=O)N[C@@H](CCC(=O)O)C(=O)NCC(=O)NCC(=O)N[C@@H](CCCCNC(=O)COCCOCCNC(=O)COCCOCCNC(=O)CC[C@H](NC(=O)CCCCCCCCCCCCC(=O)O)C(=O)O)C(=O)N[C@@H](CO)C(=O)N[C@@H](CO)C(=O)NCC(=O)N[C@@H](C)C(=O)N1CCC[C@H]1C(=O)N1CCC[C@H]1C(=O)N1CCC[C@H]1C(=O)N[C@@H](CO)C(N)=O [Example 44] | – | – | – | > 966 | – | – | – | – | – | 1.68 | 87 | 92.2 ± 6.17 | > 9950 | > 9950 | 125 | 94.5 | 90.9 ± 10.4 | –
CC[C@H](C)[C@H](NC(=O)[C@H](CC(C)C)NC(=O)[C@](C)(Cc1ccc(O)cc1)NC(=O)[C@@H](CCC(=O)O)NC(=O)[C@@H](NC(=O)[C@H](Cc1ccccc1)NC(=O)[C@H](CCC(=O)O)NC(=O)C(C)(C)NC(=O)[C@H](CCC(N)=O)NC(=O)[C@H](C)NC(=O)[C@H](CCCCNC(=O)COCCOCCNC(=O)COCCOCCNC(=O)CC[C@H](NC(=O)CCCCCCCCCCCCC(=O)O)C(=O)O)NC(=O)[C@H](CCCN)NC(=O)[C@H](CC(=O)O)NC(=O)[C@H](CC(C)C)NC(=O)[C@](C)(CC(C)C)NC(=O)[C@@H](NC(=O)[C@H](CO)NC(=O)[C@H](Cc1ccncc1)NC(=O)[C@H](CC(=O)O)NC(=O)[C@H](CO)NC(=O)[C@@H](NC(=O)[C@](C)(Cc1ccccc1F)NC(=O)[C@@H](NC(=O)CNC(=O)[C@H](CCC(=O)O)NC(=O)C(C)(C)NC(=O)[C@@H](N)Cc1ccc(O)cc1)[C@@H](C)O)[C@@H](C)O)[C@@H](C)CC)[C@@H](C)CC)C(=O)N[C@@H](CCCCNC(=O)COCCOCCNC(=O)COCCOCCNC(=O)CC[C@H](NC(=O)CCCCCCCCCCCCC(=O)O)C(=O)O)C(=O)NCC(=O)NCC(=O)N1CCC[C@H]1C(=O)N[C@@H](CO)C(=O)N[C@@H](CO)C(=O)NCC(=O)N[C@@H](C)C(=O)N1CCC[C@H]1C(=O)N1CCC[C@H]1C(=O)N1CCC[C@H]1C(=O)N[C@@H](CO)C(N)=O [Example 17] | – | – | – | > 966 | – | – | – | – | – | 0.605 | 88.9 ± 2.36 | 97.5 ± 5.04 | > 9950 | > 9950 | 48.9 | – | – | 0.0129
CC[C@H](C)[C@H](NC(=O)[C@H](CCCN)NC(=O)[C@H](CC(=O)O)NC(=O)[C@H](CC(C)C)NC(=O)[C@](C)(CC(C)C)NC(=O)[C@@H](NC(=O)[C@H](CO)NC(=O)[C@H](Cc1ccncc1)NC(=O)[C@H](CC(=O)O)NC(=O)[C@H](CO)NC(=O)[C@@H](NC(=O)[C@](C)(Cc1ccccc1F)NC(=O)[C@@H](NC(=O)CNC(=O)[C@H](CCC(=O)O)NC(=O)C(C)(C)NC(=O)[C@@H](N)Cc1ccc(O)cc1)[C@@H](C)O)[C@@H](C)O)[C@@H](C)CC)C(=O)N[C@@H](C)C(=O)N[C@@H](CCC(N)=O)C(=O)NC(C)(C)C(=O)N[C@@H](CCC(=O)O)C(=O)N[C@@H](Cc1ccccc1)C(=O)N[C@H](C(=O)N[C@@H](CCCCNC(=O)COCCOCCNC(=O)COCCOCCNC(=O)CC[C@H](NC(=O)CCCCCCCCCCCCC(=O)O)C(=O)O)C(=O)N[C@@](C)(Cc1ccc(O)cc1)C(=O)N[C@@H](CC(C)C)C(=O)N[C@H](C(=O)N[C@@H](CCCCNC(=O)COCCOCCNC(=O)COCCOCCNC(=O)CC[C@H](NC(=O)CCCCCCCCCCCCC(=O)O)C(=O)O)C(=O)NCC(=O)NCC(=O)N1CCC[C@H]1C(=O)N[C@@H](CO)C(=O)N[C@@H](CO)C(=O)NCC(=O)N[C@@H](C)C(=O)N1CCC[C@H]1C(=O)N1CCC[C@H]1C(=O)N1CCC[C@H]1C(=O)N[C@@H](CO)C(N)=O)[C@@H](C)CC)[C@@H](C)CC [Example 70] | – | – | – | 151 | – | – | – | – | – | – | 89.9 ± 0.987 | 89.1 ± 2.3 | > 9950 | > 9950 | 27 | – | 100 ± 3.11 | 0.0182
